Activity calls are given as the source filed them.
Assays:
[1] = luciferase reporter signal suppression in cells – H4 neuroglioma cells, luminescence, dose response (AID 1990); type: functional, cell-based
[2] = alpha-synuclein stem-loop luciferase translation blockers – H4 neuroglioma cells, luminescence, confirmation (AID 1988); type: functional, cell-based
[3] = Luminescence Cell-Based Dose Retest to Confirm Inhibitors of Cancer Stem Cells. [Related pubchem assays (depositor defined):AID2717, AID2721]; type: functional; conditions: Homo sapiens
Protein skinhead-1 = target: T1, Protein skinhead-1 (Caenorhabditis elegans, UniProt P34707); type: functional
T1 sequence (P34707 whole entry): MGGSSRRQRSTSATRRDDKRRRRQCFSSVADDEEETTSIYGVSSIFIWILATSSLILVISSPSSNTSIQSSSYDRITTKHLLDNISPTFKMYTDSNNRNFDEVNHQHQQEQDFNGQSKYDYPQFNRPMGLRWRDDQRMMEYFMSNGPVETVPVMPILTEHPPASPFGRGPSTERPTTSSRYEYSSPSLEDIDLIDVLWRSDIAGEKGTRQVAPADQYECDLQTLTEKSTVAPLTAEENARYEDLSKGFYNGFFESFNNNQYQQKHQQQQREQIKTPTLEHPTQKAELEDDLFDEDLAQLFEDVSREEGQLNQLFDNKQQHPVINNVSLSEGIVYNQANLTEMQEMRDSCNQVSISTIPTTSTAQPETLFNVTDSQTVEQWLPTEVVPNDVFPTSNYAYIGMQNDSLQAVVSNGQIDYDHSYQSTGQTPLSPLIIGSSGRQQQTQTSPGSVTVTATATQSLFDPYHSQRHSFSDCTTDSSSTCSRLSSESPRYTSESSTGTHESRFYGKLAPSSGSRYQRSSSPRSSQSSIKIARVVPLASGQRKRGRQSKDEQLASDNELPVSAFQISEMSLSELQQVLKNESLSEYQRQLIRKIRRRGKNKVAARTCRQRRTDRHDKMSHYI

Cytochrome P450 3A4 = Cytochrome P450 3A4 (Homo sapiens, UniProt P08684);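 further: CYP3A4 tested as one member of a cytochrome P450 panel screen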
Cytochrome P450 3A4, sequence (P08684 whole entry): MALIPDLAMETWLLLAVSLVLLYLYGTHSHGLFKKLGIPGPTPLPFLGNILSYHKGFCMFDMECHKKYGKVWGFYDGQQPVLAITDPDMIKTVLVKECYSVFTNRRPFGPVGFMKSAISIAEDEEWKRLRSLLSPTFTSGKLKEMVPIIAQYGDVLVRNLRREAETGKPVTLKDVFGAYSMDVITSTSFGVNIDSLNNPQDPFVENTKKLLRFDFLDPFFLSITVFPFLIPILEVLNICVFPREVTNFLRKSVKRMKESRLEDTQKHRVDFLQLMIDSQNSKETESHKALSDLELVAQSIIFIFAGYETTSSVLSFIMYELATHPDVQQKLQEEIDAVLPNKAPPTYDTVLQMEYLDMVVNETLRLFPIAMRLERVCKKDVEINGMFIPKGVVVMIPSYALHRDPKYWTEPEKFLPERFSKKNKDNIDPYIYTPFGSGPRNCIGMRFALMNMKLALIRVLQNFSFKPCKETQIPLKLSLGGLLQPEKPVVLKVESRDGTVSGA

[4] = target: T2, Heat shock factor protein 1 (Mus musculus, UniProt P38532); test: enhancement of HSF1-driven luciferase signal – cell-based, NIH3T3, luminescence, dose retest, confirmation (AID 435004); type: functional;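 further: stress induced by proteasome inhibitor MG132 added 30 min after compound; luciferase reporter driven by HSF1 response element in NIH3T3 cells; actives raise luminescence as potentiators of the MG132 stress response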
T2 sequence (P38532 whole entry): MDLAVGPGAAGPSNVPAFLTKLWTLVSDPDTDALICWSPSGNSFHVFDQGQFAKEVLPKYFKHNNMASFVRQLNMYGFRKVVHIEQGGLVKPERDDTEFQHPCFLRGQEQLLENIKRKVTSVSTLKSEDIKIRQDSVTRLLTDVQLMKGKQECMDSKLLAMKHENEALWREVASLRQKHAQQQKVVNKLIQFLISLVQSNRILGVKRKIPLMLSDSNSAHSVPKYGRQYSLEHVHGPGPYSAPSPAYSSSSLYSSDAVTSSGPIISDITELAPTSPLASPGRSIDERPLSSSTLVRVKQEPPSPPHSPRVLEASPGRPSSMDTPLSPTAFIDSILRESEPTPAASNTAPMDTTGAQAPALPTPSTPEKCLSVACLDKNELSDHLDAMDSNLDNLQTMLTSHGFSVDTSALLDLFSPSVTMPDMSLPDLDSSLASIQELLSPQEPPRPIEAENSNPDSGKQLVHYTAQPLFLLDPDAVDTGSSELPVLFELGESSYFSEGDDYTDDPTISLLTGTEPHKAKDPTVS

[5] = target: T3, Corticotropin-releasing factor receptor 2/Corticotropin-releasing factor-binding protein (Homo sapiens, UniProt P24387+Q13324); test: activators of CRF receptor 2 with binding protein – uHTS hits, confirmation (AID 602473); type: functional; conditions: read-out: EC50_Mean
T3 sequence (Q13324 whole entry): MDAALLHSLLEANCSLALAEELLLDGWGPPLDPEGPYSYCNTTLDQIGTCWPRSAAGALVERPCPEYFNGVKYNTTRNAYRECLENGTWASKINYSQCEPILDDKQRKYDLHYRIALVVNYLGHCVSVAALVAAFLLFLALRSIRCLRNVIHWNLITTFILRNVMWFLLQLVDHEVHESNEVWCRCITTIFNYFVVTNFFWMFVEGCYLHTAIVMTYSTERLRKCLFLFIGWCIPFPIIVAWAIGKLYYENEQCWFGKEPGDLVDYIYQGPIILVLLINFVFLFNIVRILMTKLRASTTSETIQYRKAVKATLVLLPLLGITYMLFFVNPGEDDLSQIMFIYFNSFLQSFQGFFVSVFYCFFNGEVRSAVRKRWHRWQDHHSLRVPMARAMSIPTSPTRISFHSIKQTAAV
T3 sequence (P24387 whole entry): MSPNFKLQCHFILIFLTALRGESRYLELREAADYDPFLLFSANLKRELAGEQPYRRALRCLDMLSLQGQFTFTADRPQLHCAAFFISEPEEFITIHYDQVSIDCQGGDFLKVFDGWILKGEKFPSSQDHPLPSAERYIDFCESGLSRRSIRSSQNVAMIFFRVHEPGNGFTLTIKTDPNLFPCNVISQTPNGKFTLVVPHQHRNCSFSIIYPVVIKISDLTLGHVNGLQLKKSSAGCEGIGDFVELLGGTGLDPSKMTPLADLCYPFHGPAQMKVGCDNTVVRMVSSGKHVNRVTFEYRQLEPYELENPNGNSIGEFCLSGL

[6] = target: T3, Corticotropin-releasing factor receptor 2/Corticotropin-releasing factor-binding protein; test: Dose Response confirmation of uHTS hits for small molecule antagonists of the CRF-binding protein and CRF-R2 receptor complex.; type: functional; conditions: read-out: IC50_Mean
[7] = viability of uninfected HEp-2 cells – cell-based, HTS, cytotoxicity control for RSV inhibitor project, dose response (AID 2410); type: functional; conditions: human respiratory syncytial virus
[8] = target: T2, Heat shock factor protein 1; test: decrease of HSF1-responsive luciferase luminescence – cell-based, NIH3T3, dose retest, confirmation (AID 2382); type: functional;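 further: NIH3T3 fibroblasts with HSF1-driven luciferase reporter stressed by proteasome inhibitor MG132; luminescence from HSF1-driven luciferase expression after 8 hours of MG132 stress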
[9] = Luminescence Cell-Based Dose Response HTS to Identify Inhibitors of 5'UTR Stem-Loop Driven Prion Protein mRNA Translation in H4 Neuroglioblastoma Cells. [Related pubchem assays: 1827 (Project Summary), 1813 (Primary HTS)]; type: functional
[10] = Trypanosoma cruzi growth suppression in host cells – NIH3T3 host cells, beta-gal luminescence, confirmation (AID 2044); type: functional, cell-based;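 further: intracellular parasites grown in NIH/3T3 mouse fibroblasts as host cells; luminescent beta-galactosidase reporter signal from transgenic T. cruzi replicating inside host cells; inhibitors lower the luminescence signal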
[11] = NIH3T3 cell viability loss – ATP luminescence, mouse fibroblasts, counter-screen, dose response (AID 2010); type: functional, cell-based;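 further: cells exposed to compound for about 90 hours before reading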
INS1 = test: INS-1E survival protection against cytokine death – cell-based, luminescence, retest, dose response (AID 449756); type: functional; conditions: Rattus norvegicus;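 further: cell death triggered by IL-1 beta plus TNF-alpha plus IFN-gamma mixture; protective hits raise ATP signal compared with cytokine alone wells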
[12] = target: T4, Calpain-2 catalytic subunit (Sus scrofa, UniProt P43367); test: m-calpain protease blockers, concentration series – biochemical, fluorogenic peptide substrate, dose response (AID 1420); type: functional
T4 sequence (P43367 whole entry): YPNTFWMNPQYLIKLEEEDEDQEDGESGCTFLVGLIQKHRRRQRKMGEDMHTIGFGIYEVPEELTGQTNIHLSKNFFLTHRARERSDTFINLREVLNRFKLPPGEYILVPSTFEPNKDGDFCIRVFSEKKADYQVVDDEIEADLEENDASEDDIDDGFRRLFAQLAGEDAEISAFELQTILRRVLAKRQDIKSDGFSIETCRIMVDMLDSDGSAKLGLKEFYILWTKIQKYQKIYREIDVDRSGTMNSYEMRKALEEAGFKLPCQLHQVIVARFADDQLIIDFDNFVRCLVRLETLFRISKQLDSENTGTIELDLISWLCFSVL

[13] = reduction of Shn3 3'UTR-driven luciferase in osteoblasts – cell-based, Clone20 osteoblasts, firefly luciferase, cherry-picked, dose response (AID 624132); type: functional;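 further: firefly luciferase luminescence from reporter carrying the Shn3 3'UTR in osteoblasts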
Cytochrome P450 1A2 = target: T5, Cytochrome P450 1A2 (Homo sapiens, UniProt P05177);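 further: PubChem cytochrome P450 panel assay, CYP1A2 panel member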
T5 sequence (P05177 whole entry): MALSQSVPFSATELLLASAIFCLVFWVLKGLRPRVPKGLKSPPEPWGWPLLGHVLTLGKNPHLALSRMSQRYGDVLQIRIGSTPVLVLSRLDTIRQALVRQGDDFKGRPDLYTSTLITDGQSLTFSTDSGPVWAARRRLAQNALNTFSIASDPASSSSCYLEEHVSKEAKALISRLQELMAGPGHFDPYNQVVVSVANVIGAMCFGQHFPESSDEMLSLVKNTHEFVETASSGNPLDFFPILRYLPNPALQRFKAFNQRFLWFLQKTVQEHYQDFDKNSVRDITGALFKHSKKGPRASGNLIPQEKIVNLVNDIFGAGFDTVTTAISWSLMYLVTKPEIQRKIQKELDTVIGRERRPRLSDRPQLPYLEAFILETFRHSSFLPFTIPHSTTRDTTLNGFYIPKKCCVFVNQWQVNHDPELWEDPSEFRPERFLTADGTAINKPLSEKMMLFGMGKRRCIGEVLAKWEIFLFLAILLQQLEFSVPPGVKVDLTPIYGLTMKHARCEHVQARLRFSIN

Cytochrome P450 2C9 = Cytochrome P450 2C9 (Homo sapiens, UniProt P11712)
Cytochrome P450 2C9, sequence (P11712 whole entry): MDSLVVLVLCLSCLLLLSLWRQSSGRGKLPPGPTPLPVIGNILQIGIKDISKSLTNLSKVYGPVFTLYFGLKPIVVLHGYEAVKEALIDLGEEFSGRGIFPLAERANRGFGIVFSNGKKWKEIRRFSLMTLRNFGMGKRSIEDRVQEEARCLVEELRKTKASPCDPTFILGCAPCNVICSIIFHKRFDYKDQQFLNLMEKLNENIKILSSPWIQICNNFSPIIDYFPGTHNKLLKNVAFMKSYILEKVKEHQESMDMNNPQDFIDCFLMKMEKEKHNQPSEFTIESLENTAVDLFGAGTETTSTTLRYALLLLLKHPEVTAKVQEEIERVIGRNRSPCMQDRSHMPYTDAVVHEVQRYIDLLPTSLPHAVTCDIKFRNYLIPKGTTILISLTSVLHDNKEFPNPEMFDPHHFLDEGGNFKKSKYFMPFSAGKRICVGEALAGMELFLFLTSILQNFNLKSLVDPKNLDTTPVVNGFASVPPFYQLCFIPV

COc1ccc(NC(=O)c2cccc(N3C(=O)c4ccc(C(=O)Nc5ccc(OC)c(O)c5)cc4C3=O)c2)cc1O
EC50 [1]: 15 µM (active) | EC50 [2]: 13.4 µM (active)

COC(=O)c1c(NC(=O)c2ccco2)sc2c1CCC2
AC50 [3]: 68.2 µM (active) | IC50 (Protein skinhead-1): > 100 µM (inactive) | AC50 (Cytochrome P450 3A4): 39.8 µM (inconclusive)

CCCNC(=O)c1c(CSc2ccc(Cl)cc2)noc1C(=O)NCc1ccccc1
EC50 [4]: > 260 µM (inactive)

CC1(c2ccc([N+](=O)[O-])cc2)NC(=O)N(CC(=O)c2ccc3c(c2)OCO3)C1=O (stereo unspecified)
EC50 [4]: > 260 µM (inactive) | EC50 [5]: 12.1 µM (active)

CCCOC(=O)c1cc(O)nc2ccccc12
IC50 (Protein skinhead-1): > 100 µM (inactive)

COc1cccc(C(=O)OCC(=O)NCCC2=CCCCC2)c1
IC50 [6]: > 47.1 µM (inactive) | EC50 [5]: > 53 µM (inactive)

c1ccc(CSc2ncnc3ccccc23)cc1
IC50 (Protein skinhead-1): 36.1 µM (active)

CCOc1ccc(S(=O)(=O)N2CN(c3cccc(C(C)=O)c3)c3nc4ccccc4nc32)cc1
IC50 [6]: < 0.368 µM (active) | EC50 [5]: > 53 µM (inactive)

CCOC(=O)CSc1nc2c(sc3ccc([N+](=O)[O-])cc32)c(=O)n1Cc1ccco1
EC50 [4]: > 260 µM (inactive)

CC(C)CC(=O)Nc1ccc(N2CCOCC2)cc1
EC50 [4]: > 260 µM (inactive)

CC(Oc1ccc(Cl)cc1)C(=O)OCC(=O)Nc1ncc(Cl)cc1Cl (stereo unspecified)
EC50 [4]: > 260 µM (inactive)

CCCNC(=O)CCn1nc(-c2ccc(Cl)cc2)c2ccccc2c1=O
EC50 [1]: 18.5 µM (active) | EC50 [2]: > 120 µM (not active)

CC1CCCCN1S(=O)(=O)c1ccc(C(=O)Nc2sccc2C(N)=O)cc1 (stereo unspecified)
CC50 [7]: 19.2 µM (active) | EC50 [8]: > 195 µM (not active) | IC50 (Protein skinhead-1): > 100 µM (inactive)

C=C(C)COc1ccc(-c2nc(N)ncc2-c2ccc(OC)c(OC)c2)c(O)c1
EC50 [1]: 33.7 µM (active) | EC50 [9]: > 120 µM (not active) | EC50 [2]: 15.7 µM (active)

COc1ccc(CNC(=O)CN(Cc2ccccc2)C(=O)CCC(=O)Nc2nccs2)cc1
EC50 [4]: > 260 µM (inactive)

CS(=O)(=O)N(CC(=O)Nc1ccc(CC#N)cc1)c1ccc(C23CC4CC(CC(C4)C2)C3)cc1
EC50 [10]: 2.35 µM (active) | EC50 [11]: > 60 µM (not active) | EC50 [4]: > 260 µM (inactive) | AC50 (INS1): 6.44 µM (active)

CCCCOC(=O)Nc1ccc(N2CCCCC2)cc1
IC50 (Protein skinhead-1): 10.6 µM (active)

Cc1cccc(C)c1/N=C1\SC(CC(=O)Nc2c(C)cccc2C)C(=O)N1CCc1ccccn1 (stereo unspecified)
EC50 [1]: 10.2 µM (active) | EC50 [9]: 0.46 µM (active) | EC50 [2]: 95.8 µM (active)

Cc1cccc(-n2c(SCc3ccc(C#N)cc3)nnc2-c2c[nH]c3ccccc23)c1
EC50 [1]: > 120 µM (not active) | EC50 [9]: > 120 µM (not active) | EC50 [2]: 25.7 µM (active)

O=[N+]([O-])c1ccc(NCc2ccc(Cl)cc2)nc1
IC50 [12]: 12.6 µM (not active) | IC50 (Protein skinhead-1): 32.1 µM (active)

COc1nc(-c2ccccc2)nnc1-c1ccccc1
IC50 (Protein skinhead-1): 23 µM (active)

Cc1ccc(OCC(=O)N2N=C(C(F)(F)F)CC2(O)C(C)(C)C)cc1C (stereo unspecified)
EC50 [1]: 102 µM (active) | EC50 [9]: 21.8 µM (active) | EC50 [2]: 33.1 µM (active)

CCN1CCN(Cc2ccc(NC(=O)c3cc(NC(=O)c4cc5cccc(OC)c5o4)cc(OC)c3)cc2C(F)(F)F)CC1
AC50 [13]: 10.2 µM (active)

COc1cc(NC(=O)c2cc3ccccc3o2)c(OC)cc1Br
EC50 [9]: > 120 µM (not active) | EC50 [2]: 14.7 µM (active) | AC50 (Cytochrome P450 1A2): 2.24 µM (inconclusive) | AC50 (Cytochrome P450 3A4): 10 µM (inconclusive) | AC50 (Cytochrome P450 2C9): 0.112 µM (inconclusive)

CCOc1cc(/C=N\NC(=O)C2C(=O)NCC2c2ccccc2)ccc1OC (stereo unspecified)
EC50 [1]: > 120 µM (not active) | EC50 [9]: > 120 µM (not active) | EC50 [2]: > 120 µM (not active) | EC50 [5]: 5.59 µM (active)

O=C(Nc1ccc(-c2noc(CCc3ccccc3)n2)cc1)c1ccco1
IC50 (Protein skinhead-1): > 100 µM (inactive)

O=[N+]([O-])c1cccc2ccc(/C=C/c3ccc(Cl)cc3)nc12
CC50 [7]: 20 µM (active) | IC50 (Protein skinhead-1): > 100 µM (inactive)

Fc1ccccc1/C=C/c1ccc2ccccc2n1
IC50 (Protein skinhead-1): 19.2 µM (active)

COc1ccccc1C1SCCN1S(=O)(=O)c1ccccc1 (stereo unspecified)
IC50 [6]: > 47.1 µM (inactive) | EC50 [5]: > 53 µM (inactive)

Cn1cc([C@@H]2C[C@H]3CN(Cc4cccc(Cl)c4)C(=O)[C@]34CCCN24)c2ccccc21
IC50 (Protein skinhead-1): > 100 µM (inactive)

CCOC(=O)CN1CC23C=CC(O2)C(C(=O)NCc2cccs2)C3C1=O (stereo unspecified)
IC50 (Protein skinhead-1): > 100 µM (inactive)

Source: ChEMBL document CHEMBL1201862, “PubChem BioAssay data set” (2004)
